Experimental findings from US20100137312A1, “NOVEL AROMATIC HETEROCYCLIC CARBOXYLIC ACID AMIDE DERIVATIVES USEFUL AS POTASSIUM CHANNEL MODULATORS” (neuroSearch A/S, priority 2007, published 2010) are described below.

Series [1] deals with T1, BK channels heterologously expressed in Xenopus laevis oocytes (Homo sapiens, UniProt Q12791).
T1 construct: expressed in transfected cells; host or cells: Xenopus laevis oocytes
The series is described as follows: BK channel opening activity, two-electrode voltage clamp, left-shift of the BK activation curve. The series is classed as cell-based. To be noted: 0.01-31.6 μM compound, sigmoidal logistic fit; for EC50: ΔV at control conductance level of +100 mV, read-out: EC50 for the left-shift of the BK activation curve (ΔV vs. concentration). How it is done: In this example the BK channel opening activity of Compound 2 (FIGS. 1A and 1B), Compound 1 (FIGS. 2A and 2B) and Compound 9 (FIGS. 3A and 3B) is determined using BK channels heterologously expressed in Xenopus laevis oocytes.
The electrical current through the BK channel is measured using conventional two-electrode voltage clamp. BK currents are activated by repeating ramp protocols. In brief, the membrane potential is continuously changed from −120 mV to +120 mV within 2 s. The threshold for BK activation is approximately +30 mV under control conditions. Compounds are applies for 100 s during which the ramp protocol is repeated 10 times with 10 s intervals. In between the ramp protocols the membrane potential is clamped at −80 mV. The first three compound applications are control blanks where the current level is allowed to stabilize. In the subsequent 8 applications increasing concentrations (0.01-31.6 μM) of compound is applied and a marked increase in the current level at depolarizing potentials is observed.
In order to evaluate the ability of the compounds to shift the BK activation curve towards lower membrane potentials, the BK current was transformed into conductance by using Ohm's law g=I/(Ememb−Erev), where g is the conductance, I is the current, Ememb is the membrane potential and Erev is the reversal potential. The extracellular solution for these experiments contains 2.5 mM K^+and the intracellular K^+concentration of an oocyte is estimated to be 100 mM. Under those conditions, Nernst equation predicts a reversal potential of Erev=−93.2 mV. The control conductance level at a membrane potential of +100 mV was calculated, and the compound effect was evaluated as the potential difference, ΔV, to the membrane potential at which the same conductance level was obtained in the presence of compound.
The concentration response curve for this potential difference was fitted to the sigmoidal logistic equation: ΔV=ΔVmax/(1+(EC50/[compound])^n), where ΔVmax represents the maximal left shift of the BK activation curve, EC50 is the concentration causing a half maximal response, and n is the slope coefficient.

T1 sequence (Q12791 whole entry): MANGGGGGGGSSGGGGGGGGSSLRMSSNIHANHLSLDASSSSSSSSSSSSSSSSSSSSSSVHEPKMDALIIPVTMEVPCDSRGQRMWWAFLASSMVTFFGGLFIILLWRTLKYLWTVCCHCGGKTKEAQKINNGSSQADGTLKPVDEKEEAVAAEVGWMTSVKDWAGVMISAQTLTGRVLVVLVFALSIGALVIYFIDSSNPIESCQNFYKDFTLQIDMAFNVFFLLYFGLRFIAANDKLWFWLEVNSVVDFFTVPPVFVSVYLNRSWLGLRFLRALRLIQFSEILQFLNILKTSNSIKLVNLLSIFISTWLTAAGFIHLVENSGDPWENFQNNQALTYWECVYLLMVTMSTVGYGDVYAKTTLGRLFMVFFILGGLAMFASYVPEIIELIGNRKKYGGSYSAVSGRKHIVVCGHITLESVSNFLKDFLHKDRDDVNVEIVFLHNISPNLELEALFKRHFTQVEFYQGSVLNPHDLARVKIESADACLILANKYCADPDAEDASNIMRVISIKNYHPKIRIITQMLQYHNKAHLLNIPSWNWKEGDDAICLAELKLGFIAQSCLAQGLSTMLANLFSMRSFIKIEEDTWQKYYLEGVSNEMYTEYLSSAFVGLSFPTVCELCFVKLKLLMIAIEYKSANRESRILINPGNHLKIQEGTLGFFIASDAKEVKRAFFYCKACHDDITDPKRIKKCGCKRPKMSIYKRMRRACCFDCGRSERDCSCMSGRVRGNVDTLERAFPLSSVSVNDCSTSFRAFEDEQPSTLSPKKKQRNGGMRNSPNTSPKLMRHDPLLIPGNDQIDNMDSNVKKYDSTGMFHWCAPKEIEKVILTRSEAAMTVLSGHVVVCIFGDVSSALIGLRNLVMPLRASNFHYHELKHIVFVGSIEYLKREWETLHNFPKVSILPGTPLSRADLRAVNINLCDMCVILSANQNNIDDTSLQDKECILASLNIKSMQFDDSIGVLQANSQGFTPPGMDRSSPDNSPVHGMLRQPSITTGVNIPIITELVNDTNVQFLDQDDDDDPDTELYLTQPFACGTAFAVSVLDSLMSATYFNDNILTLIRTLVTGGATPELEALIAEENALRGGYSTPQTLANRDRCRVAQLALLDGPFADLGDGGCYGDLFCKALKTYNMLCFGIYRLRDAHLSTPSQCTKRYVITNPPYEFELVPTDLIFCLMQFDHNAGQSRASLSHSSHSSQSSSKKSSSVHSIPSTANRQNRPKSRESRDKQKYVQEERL

Consider `O=C(Nc1cc(Cl)ccc1-c1nnn[nH]1)c1cc(-c2ccc(Cl)cc2)oc1C(F)(F)F` [Compound 1, 5-(4-Chloro-phenyl)-2-trifluoromethyl-furan-3-carboxylic acid [5-chloro-2-(1H-tetrazol-5-yl)-phenyl]-amide], for which, in series [1], the “maximal left-shift of the BK activation curve (ΔVmax)” value (from here on “maximal left-shift … (ΔVmax)”) was −88 mV and the EC50 worked out at 4400 nM.

Molecule `O=C(Nc1cc(Cl)ccc1-c1nnn[nH]1)c1cnn(-c2ccc(Cl)cc2)c1C(F)(F)F` [Compound 2, 1-(4-Chloro-phenyl)-5-trifluoromethyl-1H-pyrazole-4-carboxylic acid [5-chloro-2-(1H-tetrazol-5-yl)-phenyl]-amide] had a melting point of 176.3 to 180.4 °C. For the same molecule, in series [1], the “maximal left-shift … (ΔVmax)” value is on record as −94 mV and the EC50 amounted to 2400 nM.

`CS(=O)(=O)NC(=O)c1ccc(Cl)cc1NC(=O)c1cc(-c2ccc(Cl)cc2)oc1C(F)(F)F` [Compound 5, 5-(4-Chloro-phenyl)-2-trifluoromethyl-furan-3-carboxylic acid (5-chloro-2-methanesulfonylaminocarbonyl-phenyl)-amide] displayed a melting point of 259 to 262 °C.

Molecule `O=C(Nc1cc(Cl)ccc1OCc1nnn[nH]1)c1cc(-c2ccc(Cl)cc2)oc1C(F)(F)F` [Compound 7, 5-(4-Chloro-phenyl)-2-trifluoromethyl-furan-3-carboxylic acid [5-chloro-2-(1H-tetrazol-5-ylmethoxy)-phenyl]-amide] returned a melting point of 226.9 to 236.1 °C.

In the case of `Cc1nc(-c2ccc(C(F)(F)F)cc2)sc1C(=O)Nc1cc(Cl)ccc1-c1nnn[nH]1` [Compound 9, 4-Methyl-2-(4-trifluoromethyl-phenyl)-thiazole-5-carboxylic acid [5-chloro-2-(1H-tetrazol-5-yl)-phenyl]-amide], the melting point was 325 to 337.2 °C. Also, in series [1], the “maximal left-shift … (ΔVmax)” value is given as −99 mV and the EC50 came to 970 nM.

In the case of `Cc1oc(-c2ccc(Cl)cc2)cc1C(=O)Nc1cc(Cl)ccc1-c1nnn[nH]1` [Compound 12, 5-(4-Chloro-phenyl)-2-methyl-furan-3-carboxylic acid [5-chloro-2-(1H-tetrazol-5-yl)-phenyl]-amide], the melting point lay in the range of 246.7 to 255.4 °C.

`O=C(O)c1cc(F)c(F)cc1NC(=O)c1cc(-c2ccc(Cl)cc2)oc1C(F)(F)F` [Compound 13, 2-{[5-(4-Chloro-phenyl)-2-trifluoromethyl-furan-3-carbonyl]-amino}-4,5-difluoro-benzoic acid] had a melting point of 337.2 to 340.2 °C.

`Cc1oc(-c2ccc(Cl)cc2)cc1C(=O)Nc1cc(Cl)ccc1-c1noc(=O)[nH]1` [Compound 20, 5-(4-Chloro-phenyl)-2-methyl-furan-3-carboxylic acid [5-chloro-2-(5-oxo-4,5-dihydro-[1,2,4]oxadiazol-3-yl)-phenyl]-amide] showed a melting point of 248.1 to 250.9 °C.
